Measurements as given in ChEMBL document CHEMBL1201862, “PubChem BioAssay data set” (2004).
Active and inactive are the calls of the source.

Key:
[1] = tested on: Streptococcus sp. 'group A'; assay: Streptococcus pyogenes SK(-)GAS viability under kanamycin – luminescence, BacTiterGlo, confirmation, counter-screen for streptokinase expression inhibitor project, dose response (AID 1900); format: functional, organism-based
Streptococcus = assay: GAS UMAA2166 growth inhibition – luminescence, BacTiterGlo, counter-screen for streptokinase expression inhibitor project, dose response (AID 1915); format: functional, organism-based;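 also: potency for reduction of bacterial viability or growth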
[2] = THP-1 cell cytotoxicity, dose response, cytotoxicity control for non-replicating M. tuberculosis project (AID 489025); format: functional
[3] = HepG2 cell cytotoxicity, dose response, cytotoxicity control for non-replicating M. tuberculosis project (AID 489018); format: functional; settings: Mycobacterium tuberculosis
[4] = Vero E6 cell cytotoxicity, dose response, cytotoxicity control for non-replicating M. tuberculosis project, secondary assay (AID 492998); format: functional, VeroE6; settings: Vero C1008
cells [5] = format: functional
[6] = NIH-3T3 fibroblast cytotoxicity, dose response, cytotoxicity control, cell-based, fluorescence, Alamar Blue, secondary assay (AID 2327); format: functional;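 also: NIH-3T3 mouse fibroblasts cultured with fluconazole at 8 µg/mL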
[7] = fluconazole-exposed Candida albicans growth modulators – fluorescence, retest, confirmation (AID 2467); format: functional, cell-based
Troponin, cardiac muscle = Troponin, cardiac muscle (Homo sapiens, UniProt P19429+P45379+P63316); assay: Fluorescence-based biochemical high throughput dose response assay for activators of the calcium sensitivity of cardiac Regulated Thin Filaments (RTF). [Related pubchem assays (depositor defined):AID493008, AID493018, AID504382, AID504383]; format: protein-complex assay
[8] = target: T1, Corticotropin-releasing factor receptor 2/Corticotropin-releasing factor-binding protein (Homo sapiens, UniProt P24387+Q13324); assay: activators of CRF receptor 2 with binding protein – uHTS hits, confirmation (AID 602473); format: functional; settings: read-out: EC50_Mean
T1 sequence (Q13324 whole entry): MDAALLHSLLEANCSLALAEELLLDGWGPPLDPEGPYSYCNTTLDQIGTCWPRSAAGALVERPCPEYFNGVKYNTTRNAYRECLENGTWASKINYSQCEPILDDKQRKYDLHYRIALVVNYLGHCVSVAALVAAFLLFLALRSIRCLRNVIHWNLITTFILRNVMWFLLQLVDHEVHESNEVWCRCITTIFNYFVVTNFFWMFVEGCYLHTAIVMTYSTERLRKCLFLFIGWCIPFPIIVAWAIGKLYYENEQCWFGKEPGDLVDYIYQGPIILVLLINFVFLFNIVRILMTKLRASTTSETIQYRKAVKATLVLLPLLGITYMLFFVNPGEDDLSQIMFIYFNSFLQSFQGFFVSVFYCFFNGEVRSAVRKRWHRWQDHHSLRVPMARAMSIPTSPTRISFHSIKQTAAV
T1 sequence (P24387 whole entry): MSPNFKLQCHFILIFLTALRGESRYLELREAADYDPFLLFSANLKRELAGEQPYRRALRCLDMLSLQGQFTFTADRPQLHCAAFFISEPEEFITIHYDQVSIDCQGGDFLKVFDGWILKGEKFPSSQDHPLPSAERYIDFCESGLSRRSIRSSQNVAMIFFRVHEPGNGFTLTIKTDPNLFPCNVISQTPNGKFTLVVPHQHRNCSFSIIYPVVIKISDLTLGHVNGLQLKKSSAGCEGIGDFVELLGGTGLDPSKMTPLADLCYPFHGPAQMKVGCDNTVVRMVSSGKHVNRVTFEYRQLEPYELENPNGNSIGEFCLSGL

Galanin receptor type 3 = target: T2, Galanin receptor type 3 (Homo sapiens, UniProt O60755); assay: Fluorescence-based cell-based primary high throughput dose response assay to identify antagonists of the Galanin Receptor 3 (GalR3).; format: functional
T2 sequence (O60755 whole entry): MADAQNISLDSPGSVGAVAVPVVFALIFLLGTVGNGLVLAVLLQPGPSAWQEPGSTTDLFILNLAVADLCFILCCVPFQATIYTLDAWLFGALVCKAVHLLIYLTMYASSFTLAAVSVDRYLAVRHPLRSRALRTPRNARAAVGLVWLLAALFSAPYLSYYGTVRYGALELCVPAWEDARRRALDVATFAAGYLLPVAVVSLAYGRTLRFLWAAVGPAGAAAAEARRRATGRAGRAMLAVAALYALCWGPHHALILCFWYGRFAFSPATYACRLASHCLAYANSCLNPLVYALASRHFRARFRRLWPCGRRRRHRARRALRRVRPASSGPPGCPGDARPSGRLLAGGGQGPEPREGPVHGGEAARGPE

cells [9] = format: functional, cell-based; settings: HEK-CNG
[10] = A cytotoxicity screen of small molecule inhibitors of the PhoP region in Salmonella typhi identified in the primary screen. [Related pubchem assays: 1850, 1864, 1985 ]; format: functional
[11] = target: T3, Microphthalmia-associated transcription factor (Homo sapiens, UniProt O75030); assay: reducers of TRPM1 reporter luminescence, concentration series – cell-based, SK-MEL-5, cherry-picked, set 3, MITF inhibitor project, dose response (AID 493073); format: functional;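 also: SK-MEL-5 melanoma cells with luciferase driven by the MITF target TRPM1 promoter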
T3 sequence (O75030 whole entry): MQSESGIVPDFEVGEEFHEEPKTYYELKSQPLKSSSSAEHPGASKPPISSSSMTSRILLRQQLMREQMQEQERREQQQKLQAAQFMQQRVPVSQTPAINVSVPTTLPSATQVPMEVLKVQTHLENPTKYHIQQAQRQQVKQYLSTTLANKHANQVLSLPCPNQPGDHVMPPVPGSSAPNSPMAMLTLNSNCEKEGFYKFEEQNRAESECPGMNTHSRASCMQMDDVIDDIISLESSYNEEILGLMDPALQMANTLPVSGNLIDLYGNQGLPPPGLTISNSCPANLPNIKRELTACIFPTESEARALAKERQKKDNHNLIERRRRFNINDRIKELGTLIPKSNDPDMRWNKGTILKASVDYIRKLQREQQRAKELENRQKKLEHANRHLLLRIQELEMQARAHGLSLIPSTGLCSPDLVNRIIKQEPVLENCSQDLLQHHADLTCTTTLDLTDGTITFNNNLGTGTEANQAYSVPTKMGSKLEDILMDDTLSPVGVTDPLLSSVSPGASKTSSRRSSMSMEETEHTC

CAAX prenyl protease 2 = target: T4, CAAX prenyl protease 2 (Saccharomyces cerevisiae S288c, UniProt Q03530); format: biochemical
T4 sequence (Q03530 whole entry): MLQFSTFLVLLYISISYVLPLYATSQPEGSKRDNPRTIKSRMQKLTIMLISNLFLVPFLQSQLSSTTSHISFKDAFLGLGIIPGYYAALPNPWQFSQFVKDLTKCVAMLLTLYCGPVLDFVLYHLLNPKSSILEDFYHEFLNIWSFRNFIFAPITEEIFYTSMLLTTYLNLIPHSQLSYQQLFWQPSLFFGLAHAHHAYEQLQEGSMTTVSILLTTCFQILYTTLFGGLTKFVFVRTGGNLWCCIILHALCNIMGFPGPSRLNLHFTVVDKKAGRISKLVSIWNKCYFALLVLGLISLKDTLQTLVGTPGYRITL

[12] = target: Alkaline phosphatase, placental type (Homo sapiens, UniProt P05187); assay: human placental alkaline phosphatase inhibition – biochemical, luminescence, confirmation (AID 1512); format: functional
[13] = target: T5, Alkaline phosphatase, tissue-nonspecific isozyme (Homo sapiens, UniProt P05186); assay: potency against alkaline phosphatase TNAP – biochemical, luminescent, dose response, SAR follow-up (AID 1056)
T5 sequence (P05186 whole entry): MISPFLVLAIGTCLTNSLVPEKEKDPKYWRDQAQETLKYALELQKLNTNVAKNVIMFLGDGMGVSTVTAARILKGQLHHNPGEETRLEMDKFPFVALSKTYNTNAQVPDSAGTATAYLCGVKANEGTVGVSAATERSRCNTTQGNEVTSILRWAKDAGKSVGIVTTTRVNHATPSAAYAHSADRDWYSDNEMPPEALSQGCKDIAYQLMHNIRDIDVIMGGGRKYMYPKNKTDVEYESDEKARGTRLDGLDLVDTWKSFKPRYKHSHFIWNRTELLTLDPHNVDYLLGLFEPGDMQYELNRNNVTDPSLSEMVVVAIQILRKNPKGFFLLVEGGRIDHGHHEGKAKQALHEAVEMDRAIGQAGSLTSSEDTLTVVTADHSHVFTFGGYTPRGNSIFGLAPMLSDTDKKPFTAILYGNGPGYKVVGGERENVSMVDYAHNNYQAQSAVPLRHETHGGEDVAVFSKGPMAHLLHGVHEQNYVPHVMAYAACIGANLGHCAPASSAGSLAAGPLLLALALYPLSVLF

[14] = target: Glyceraldehyde-3-phosphate dehydrogenase (Homo sapiens, UniProt P04406)
Protein skinhead-1 = target: T6, Protein skinhead-1 (Caenorhabditis elegans, UniProt P34707); format: functional
T6 sequence (P34707 whole entry): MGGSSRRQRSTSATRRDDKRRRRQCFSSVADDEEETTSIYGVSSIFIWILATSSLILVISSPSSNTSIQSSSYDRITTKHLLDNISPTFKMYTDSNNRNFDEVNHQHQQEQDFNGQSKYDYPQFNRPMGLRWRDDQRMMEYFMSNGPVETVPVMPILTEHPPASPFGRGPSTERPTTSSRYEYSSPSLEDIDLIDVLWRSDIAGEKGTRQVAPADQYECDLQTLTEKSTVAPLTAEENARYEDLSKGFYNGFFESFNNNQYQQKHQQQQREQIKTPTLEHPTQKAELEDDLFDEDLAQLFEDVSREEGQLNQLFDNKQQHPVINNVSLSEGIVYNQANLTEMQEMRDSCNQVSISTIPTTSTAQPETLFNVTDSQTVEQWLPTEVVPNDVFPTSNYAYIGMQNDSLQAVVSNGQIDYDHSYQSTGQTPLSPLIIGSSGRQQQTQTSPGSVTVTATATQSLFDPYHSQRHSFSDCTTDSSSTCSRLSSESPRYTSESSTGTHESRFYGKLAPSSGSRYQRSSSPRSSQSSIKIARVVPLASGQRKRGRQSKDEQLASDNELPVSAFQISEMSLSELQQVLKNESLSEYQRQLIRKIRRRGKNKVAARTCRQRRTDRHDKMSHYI

[15] = target: T7, Heat shock factor protein 1 (Mus musculus, UniProt P38532); assay: enhancement of HSF1-driven luciferase signal – cell-based, NIH3T3, luminescence, dose retest, confirmation (AID 435004); format: functional;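 also: stress induced by proteasome inhibitor MG132 added 30 min after compound; luciferase reporter driven by HSF1 response element in NIH3T3 cells; actives raise luminescence as potentiators of the MG132 stress response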
T7 sequence (P38532 whole entry): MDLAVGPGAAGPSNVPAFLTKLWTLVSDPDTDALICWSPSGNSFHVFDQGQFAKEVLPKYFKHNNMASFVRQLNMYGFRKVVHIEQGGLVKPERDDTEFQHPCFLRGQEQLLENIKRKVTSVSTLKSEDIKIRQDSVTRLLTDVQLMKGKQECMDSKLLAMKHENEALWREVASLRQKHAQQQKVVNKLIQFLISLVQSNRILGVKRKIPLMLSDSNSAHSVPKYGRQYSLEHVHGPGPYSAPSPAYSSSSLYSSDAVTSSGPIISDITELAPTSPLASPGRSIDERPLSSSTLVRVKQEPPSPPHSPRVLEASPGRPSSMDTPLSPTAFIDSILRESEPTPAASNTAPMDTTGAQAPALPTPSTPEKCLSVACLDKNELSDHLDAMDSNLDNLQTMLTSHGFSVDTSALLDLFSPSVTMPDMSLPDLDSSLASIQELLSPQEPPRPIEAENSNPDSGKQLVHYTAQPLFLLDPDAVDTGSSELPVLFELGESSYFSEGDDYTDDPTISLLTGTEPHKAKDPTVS

Trypsin = Trypsin (Sus scrofa, UniProt P00761); assay: trypsin protease activity blockade – biochemical, quenched peptide fluorescence, cherry-pick, selectivity assay for Rce1 protease inhibitor project, dose response (AID 488789)
Beta-galactosidase = Beta-galactosidase (Escherichia coli, UniProt Q8VNN2); assay: Dose response counterscreen for EBI2 assay utilizing the enzyme, b-galactosidase.; format: functional
Sequence of Beta-galactosidase (Q8VNN2 whole entry): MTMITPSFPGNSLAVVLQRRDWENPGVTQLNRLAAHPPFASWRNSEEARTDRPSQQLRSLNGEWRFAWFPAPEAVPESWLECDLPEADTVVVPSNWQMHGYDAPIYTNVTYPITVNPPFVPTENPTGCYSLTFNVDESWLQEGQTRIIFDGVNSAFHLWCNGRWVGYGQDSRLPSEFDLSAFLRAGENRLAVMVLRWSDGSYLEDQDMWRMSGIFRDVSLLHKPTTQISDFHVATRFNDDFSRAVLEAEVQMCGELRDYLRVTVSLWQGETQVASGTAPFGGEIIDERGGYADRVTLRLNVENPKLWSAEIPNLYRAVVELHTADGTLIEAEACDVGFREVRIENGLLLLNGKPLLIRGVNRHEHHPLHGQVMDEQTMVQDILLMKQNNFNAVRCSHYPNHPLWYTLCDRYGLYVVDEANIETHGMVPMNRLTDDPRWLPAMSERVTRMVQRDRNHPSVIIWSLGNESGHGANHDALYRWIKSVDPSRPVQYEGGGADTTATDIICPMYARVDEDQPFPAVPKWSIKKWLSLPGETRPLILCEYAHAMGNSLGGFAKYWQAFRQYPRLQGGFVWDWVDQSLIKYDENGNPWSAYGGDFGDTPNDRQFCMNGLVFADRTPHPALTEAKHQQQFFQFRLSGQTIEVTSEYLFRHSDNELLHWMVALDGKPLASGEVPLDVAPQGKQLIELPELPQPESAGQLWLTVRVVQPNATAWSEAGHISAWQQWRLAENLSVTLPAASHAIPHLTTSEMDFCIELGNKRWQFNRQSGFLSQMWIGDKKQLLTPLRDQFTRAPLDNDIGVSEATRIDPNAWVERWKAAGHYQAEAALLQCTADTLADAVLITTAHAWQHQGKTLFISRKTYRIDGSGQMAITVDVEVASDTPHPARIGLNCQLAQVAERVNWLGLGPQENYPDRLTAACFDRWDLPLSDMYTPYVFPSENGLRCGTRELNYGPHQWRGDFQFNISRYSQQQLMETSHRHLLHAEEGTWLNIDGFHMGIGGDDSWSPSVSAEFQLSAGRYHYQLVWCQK

Sequence of Glyceraldehyde-3-phosphate dehydrogenase (P04406 whole entry): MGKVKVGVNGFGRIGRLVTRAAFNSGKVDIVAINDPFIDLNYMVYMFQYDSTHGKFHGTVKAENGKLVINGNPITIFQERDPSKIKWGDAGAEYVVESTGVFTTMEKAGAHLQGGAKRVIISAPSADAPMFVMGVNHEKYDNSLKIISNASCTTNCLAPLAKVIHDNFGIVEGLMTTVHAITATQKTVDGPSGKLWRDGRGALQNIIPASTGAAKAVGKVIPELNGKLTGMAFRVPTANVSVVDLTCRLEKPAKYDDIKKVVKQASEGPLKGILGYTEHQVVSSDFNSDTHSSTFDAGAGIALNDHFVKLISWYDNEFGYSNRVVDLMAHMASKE
Sequence of Alkaline phosphatase, placental type (P05187 whole entry): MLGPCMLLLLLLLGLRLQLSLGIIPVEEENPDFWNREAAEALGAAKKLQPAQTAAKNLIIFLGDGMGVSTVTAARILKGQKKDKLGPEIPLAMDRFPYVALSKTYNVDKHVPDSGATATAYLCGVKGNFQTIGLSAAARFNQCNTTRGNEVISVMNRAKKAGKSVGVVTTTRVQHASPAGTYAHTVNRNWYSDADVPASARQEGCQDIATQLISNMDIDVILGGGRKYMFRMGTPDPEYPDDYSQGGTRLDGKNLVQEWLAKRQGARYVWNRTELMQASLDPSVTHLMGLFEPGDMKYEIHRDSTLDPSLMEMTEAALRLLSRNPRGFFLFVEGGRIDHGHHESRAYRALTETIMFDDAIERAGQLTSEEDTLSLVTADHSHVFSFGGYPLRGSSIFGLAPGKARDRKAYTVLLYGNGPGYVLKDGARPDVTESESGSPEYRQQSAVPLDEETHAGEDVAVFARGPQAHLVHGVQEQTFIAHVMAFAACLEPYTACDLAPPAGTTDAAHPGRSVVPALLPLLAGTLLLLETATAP
Sequence of Trypsin (P00761 whole entry): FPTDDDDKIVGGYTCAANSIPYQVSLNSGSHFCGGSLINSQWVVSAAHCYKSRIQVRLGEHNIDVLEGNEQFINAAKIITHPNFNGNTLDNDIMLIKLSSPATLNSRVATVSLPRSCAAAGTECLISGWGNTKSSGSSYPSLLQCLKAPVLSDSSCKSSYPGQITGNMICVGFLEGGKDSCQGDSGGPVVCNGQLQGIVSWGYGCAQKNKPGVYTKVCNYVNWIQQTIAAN

SMILES: CCOC(=O)Cc1c(C)nc2c(-c3cccc(Br)c3)cnn2c1O
- EC50 [1]: 3.46 µM (active)
- EC50 (Streptococcus): 6.07 µM (active)
- CC50 [2]: 11.9 µM (active)
- CC50 [3]: 16.4 µM (active)
- CC50 [4]: 8.15 µM (active)
- IC50 (cells [5]): 3.08 µM (active)

SMILES: COc1cc(OC)cc(C(=O)Oc2c(CN3CCOCC3)cc(Cl)c3cccnc23)c1
- EC50 [6]: > 150 µM (inconclusive)
- EC50 [7]: 2.94 µM (active)
- CC50 [2]: 7.27 µM (active)
- CC50 [3]: 17 µM (active)
- CC50 [4]: 3.74 µM (active)
- IC50 (cells [5]): 15.4 µM (active)

SMILES: Cc1cc(NC(=O)COC(=O)C(Cc2ccccc2)NC(=O)c2ccco2)no1 (stereo not given)
- EC50 (Troponin, cardiac muscle): > 71.5 µM (inactive)
- EC50 [8]: 4.49 µM (active)
- IC50 (Galanin receptor type 3): > 29.9 µM (inactive)
- EC50 (cells [9]): > 29.9 µM (inactive)

SMILES: O=C(Cn1cc(/C=C\[N+](=O)[O-])c2ccccc21)Nc1ccccc1
- EC50 [10]: > 50 µM (active)
- AC50 [11]: 7.45 µM (active)

SMILES: O=C1CCN(Cc2ccccc2)CCN1[C@H](CSc1ccccc1)Cc1ccccc1
- AC50 (CAAX prenyl protease 2): 13.9 µM (active)

SMILES: O=C(CN1CCCCC1)c1ccc(O)c(O)c1
- IC50 [12]: 67.5 µM (active)
- IC50 [13]: 43.2 µM (active)

SMILES: COc1ccc(OC)c(NS(=O)(=O)c2cccc3cccnc23)c1
- IC50 [14]: > 100 µM (not active)
- IC50 [13]: > 100 µM (inactive)

SMILES: CCN(CC)c1ccc(/C=c2\sc3nc4ccccc4n3c2=O)c(O)c1
- EC50 (Troponin, cardiac muscle): 2.78 µM (active)
- IC50 (Protein skinhead-1): > 100 µM (inactive)

SMILES: CCOC(=O)c1sc2nc(C)nc(SCC(=O)NC3CCS(=O)(=O)C3)c2c1C (stereo not given)
- EC50 (Troponin, cardiac muscle): > 71.5 µM (inactive)
- EC50 [15]: > 260 µM (inactive)

SMILES: COc1ccc(C(C(=O)NC2CCCCC2)N(C(=O)c2snc(C(N)=O)c2N)c2ccc(OC)cc2OC)cc1 (stereo not given)
- AC50 (Trypsin): 21.6 µM (active)
- AC50 (CAAX prenyl protease 2): 22.1 µM (active)
- IC50 (Beta-galactosidase): > 80 µM (inactive)
